Target: T1, CCR9 (Homo sapiens, UniProt P51686)
T1 construct: host or cells: HEK293T, transient
T1 sequence (P51686 1-369): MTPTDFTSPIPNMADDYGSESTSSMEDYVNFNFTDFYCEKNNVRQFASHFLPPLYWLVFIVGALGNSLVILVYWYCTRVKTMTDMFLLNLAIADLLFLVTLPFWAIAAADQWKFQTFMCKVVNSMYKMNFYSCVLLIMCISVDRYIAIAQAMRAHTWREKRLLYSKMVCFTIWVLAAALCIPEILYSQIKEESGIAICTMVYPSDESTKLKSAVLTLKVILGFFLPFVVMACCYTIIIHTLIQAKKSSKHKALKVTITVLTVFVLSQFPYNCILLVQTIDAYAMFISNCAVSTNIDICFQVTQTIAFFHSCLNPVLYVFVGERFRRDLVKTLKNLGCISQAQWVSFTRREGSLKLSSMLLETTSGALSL
Test: NanoBRET-based assay for binding to the IABS of CCR9, as previously reported
Details: up to a concentration of 20 μM
Excerpt: With 6 (Figure 1), a first lead structure for intracellular CCR1 inhibition that features an approximately 20-fold CCR1 over CCR2 selectivity was previously discovered by Ortiz Zacarías et al.([33]) In order to discover new chemotypes for selective CCR1 over CCR2 inhibition, we aimed to apply our novel NanoBRET competition binding assay for CCR1 in combination with our recently published CCR2 competition binding assay based on 7.[47] In our first attempt, we screened a small in-house library enriched with intracellular GPCR ligands and structural analogues thereof. […] Additionally, we tested 23 for binding to the IABS of CCR9 and CXCR2 using our recently reported NanoBRET-based assay platform (Figure 6C).[44],[45] In the course of these studies, we detected no binding of 23 to CCR9 and CXCR2 up to a concentration of 20 μM. Since cell lineage-dependent effects have been observed for CCR1 antagonists,[59] we studied the CCR1 over CCR2 selectivity of 23 by using a previously reported radioligand binding assay with membrane preparations from osteosarcoma (U2OS) cells stably expressing human CCR1 or CCR2.[33] […] In agreement with these previous reports,[33] we observed a reduction in CCR1 over CCR2 selectivity when moving from membrane-based binding assays to cell-based functional assays. […]

## O=C(C1=C(O)C(=O)N(CCc2ccc(O)cc2)C1c1ccc(F)cc1)c1ccccc1 (racemic) [compound 23]
  Binding to the IABS of CCR9: no binding
